The target in experiment [1] is T1, platelet receptor, the GPIIb/IIIa complex (Homo sapiens, UniProt P05106+P08514).
T1 construct: Platelets were isolated from normal platelet-rich plasma and washed by the albumin density gradient technique; endogenous in cells; host or cells: washed platelets from normal platelet-rich plasma, thrombin-stimulated
Put plainly: Inhibition of 125I-fibrinogen binding to thrombin-stimulated washed platelets. The procedure: Peptides were stored in the lyophilized state and dissolved in distilled water immediately before use. One-tenth volume of 10x modified Tyrode buffer was added before mixing with the platelet suspension. Platelets were isolated from normal platelet-rich plasma and washed by the albumin density gradient technique. Fibrinogen was purified following precipitation with glycine or polyethylene glycol 1000, and radiolabeled with ^125 I using Iodogen (Pierce). […] In each experimental mixture, platelets in modified Tyrode buffer were stimulated with human alpha-thrombin at 22°-25° C. for 10 minutes (3.125×10^11 platelets/L and 0.25 NIHU/ml of thrombin). Hirudin (Sigma) was then added at a 25-fold excess (V/V) for 5 minutes before the addition of ^125 I-fibrinogen and the peptide was then tested. After these additions, the final platelet count in the mixture was 1×10^11 /L, and fibrinogen was 0.176 micromolar. Separation of bound from free ligand was achieved by centrifuging 50 microliters of the mixture through 200 microliters of 20% sucrose at 12,000 g for 4 minutes. The platelet pellet was separated from the rest of the mixture, and the platelet-bound radioactivity was then determined. Non-specific binding was measured in mixtures containing a 75-fold excess of unlabeled fibrinogen. […] Each peptide was tested at six different concentrations, and the IC50 was derived from a plot of residual fibrinogen binding versus log of peptide concentration.

Experiment [2] deals with T1, platelet receptor, the GPIIb/IIIa complex. Particulars: increasing fibrinogen concentrations; earlier findings; cited from earlier work.
Setting [3] is: read-out: Typical IC50 (micromolar) IC50.

This is an account of results in patent publication US4683291A, “Platelet binding inhibitors” (Scripps Clinic and Research Foundation, priority 1985, dated 1987).

Read-outs that look alike come from different tables or passages of the source. Non-standard residues stand in square brackets, D forms with d. Residues, ends and D or L forms follow the SMILES beside them. No end group written: not given here.

As for “HHLGGAKQRGDV [His--His--Leu--Gly--Gly--Ala--Lys--Gln--Arg--Gly--Asp--Val]”, in experiment [1] (setting [3]), the concentration for half-maximal inhibition (IC50) is 14.5 µM.

As to “HHKRKRKRRGDS [His--His--Lys--Arg--Lys--Arg--Lys--Arg--Arg--Gly--Asp--Ser]”, the IC50 in experiment [1] (setting [3]) is 3.1 µM.

Take “HHLGGKKQRGDV [His--His--Leu--Gly--Gly--Lys--Lys--Gln--Arg--Gly--Asp--Val]”: in experiment [1] (setting [3]), the IC50 amounted to 13.2 µM.

Turning to `CC(C)[C@H](NC(=O)[C@H](CC(=O)O)NC(=O)CNC(=O)[C@H](CCCNC(=N)N)NC(=O)[C@H](CCC(N)=O)NC(=O)[C@H](CCCCN)NC(=O)[C@H](CCCNC(=N)N)NC(=O)[C@H](CCCCN)NC(=O)[C@H](CCCNC(=N)N)NC(=O)[C@@H](C)NC(=O)[C@H](Cc1c[nH]cn1)NC(=O)[C@@H](N)Cc1c[nH]cn1)C(=O)O` [His--His--D-Ala--Arg--Lys--Arg--Lys--Gln--Arg--Gly--Asp--Val] (H-HH[dA]RKRKQRGDV-OH), the IC50 in experiment [1] (setting [3]) was found to be 2.2 µM.

“HHKRKRKQRGDV [His--His--Lys--Arg--Lys--Arg--Lys--Gln--Arg--Gly--Asp--Val]”: in experiment [1] (setting [3]), the concentration for half-maximal inhibition (IC50) worked out at 3.3 µM.

Consider “Gly-Pro-Arg-Pro (GPRP; printed: Gly-Pro-Arg-Pro)”, for which the “inhibitory effect on increasing the fibrinogen concentration” value in experiment [2] is recorded as “increase with increasing fibrinogen concentrations”.

As to “HHLGRRKQRGDV [His--His--Leu--Gly--Arg--Arg--Lys--Gln--Arg--Gly--Asp--Val]”, in experiment [1] (setting [3]), the half-inhibitory concentration (IC50) was determined as 5.4 µM.

For the compound “HHRRRRRRRGDV [His--His--Arg--Arg--Arg--Arg--Arg--Arg--Arg--Gly--Asp--Val]”, the IC50 in experiment [1] (setting [3]) is 1.3 µM.

With “KKKKKKKKRGDV [Lys--Lys--Lys--Lys--Lys--Lys--Lys--Lys--Arg--Gly--Asp--Val]”, the IC50 in experiment [1] (setting [3]) is 4.1 µM.

For “HHKKKKKKRGDV [His--His--Lys--Lys--Lys--Lys--Lys--Lys--Arg--Gly--Asp--Val]”, in experiment [1] (setting [3]), the half-inhibitory concentration (IC50) turned out to be 1.6 µM.

As to “HHLRGKKQRGDV [His--His--Leu--Arg--Gly--Lys--Lys--Gln--Arg--Gly--Asp--Val]”, the IC50 in experiment [1] (setting [3]) was 11.2 µM.

As for “HHLRGRKQRGDV [His--His--Leu--Arg-- Gly--Arg--Lys--Gln--Arg--Gly--Asp--Val]”, the concentration for half-maximal inhibition (IC50) in experiment [1] (setting [3]) turned out to be 6.2 µM.

As to “KRKRKRKRRGDV [Lys--Arg--Lys--Arg--Lys--Arg--Lys--Arg--Arg--Gly--Asp--Val]”, in experiment [1] (fibrinogen-platelet binding, read-out: IC50), the IC50 is 0.4 µM.

For the compound `CC(C)[C@H](NC(=O)[C@H](CC(=O)O)NC(=O)CNC(=O)[C@H](CCCNC(=N)N)NC(=O)[C@H](CCC(N)=O)NC(=O)[C@H](CCCCN)NC(=O)[C@H](CCCNC(=N)N)NC(=O)CNC(=O)CNC(=O)[C@@H](C)NC(=O)[C@H](Cc1c[nH]cn1)NC(=O)[C@@H](N)Cc1c[nH]cn1)C(=O)O` [His--His--D-Ala--Gly--Gly--Arg--Lys--Gln--Arg--Gly--Asp--Val] (H-HH[dA]GGRKQRGDV-OH), in experiment [1] (setting [3]), the IC50 is 2.8 µM.

For the compound “HHKRKRKQRGDS [His--His--Lys--Arg--Lys--Arg--Lys--Gln--Arg--Gly--Asp--Ser]”, the IC50 in experiment [1] (setting [3]) stood at 6.2 µM.

Consider “RRRRRRRRRGDV [Arg--Arg--Arg--Arg--Arg--Arg--Arg--Arg--Arg--Gly--Asp--Val]”, for which the IC50 in experiment [1] (setting [3]) was 0.2 µM.

In the case of “HHLGGRKQRGDV [His--His--Leu--Gly--Gly--Arg--Lys--Gln--Arg--Gly--Asp--Val]”, the concentration for half-maximal inhibition (IC50) in experiment [1] (setting [3]) amounted to 6.3 µM.

As for “HHLRKRKQRGDV [His--His--Leu--Arg--Lys--Arg--Lys--Gln--Arg--Gly--Asp--Val]”, the half-inhibitory concentration (IC50) in experiment [1] (setting [3]) came out at 4.4 µM.

With HHLGGAKQAGDV [reference compound], the IC50 in experiment [1] (published peptides, read-out: IC50) was 48 to 83 µM.
